Results on six molecules are retold here after patent publication US20090214544A1, “Method of treating cd30 positive lymphomas” (MEDAREX, priority 2005, published 2009).

For assay [1] the following is noted: guidance for hydrocortisone equivalents; actual potency may vary slightly; cited from earlier work.
In assay [2] the test system is Hodgkin's Disease (HD), CD30 positive lymphoma. The assay can be described thus: Combination therapy of anti-CD30 antibody and glucocorticosteroid in patients with Hodgkin's Disease. The format is in vivo, human. The protocol:
The patient, diagnosed with HD, received 5 mg/kg anti-CD30 antibody 5F11 by i.v. infusion once per day per week for 3 weeks. The week after completing antibody therapy (i.e., fourth week from start of therapy), the patient received 40 mg oral dexamethasone once per day for 2 days; one month later the patient received another 40 mg oral dexamethasone once per day for 4 days; two weeks later the patient received a third regimen of 40 mg oral dexamethasone once per day for 4 days.
Patient 2, diagnosed with HD, received 15 mg/kg anti-CD30 antibody 5F11 by i.v. infusion once per day per week for 3 weeks. At the start of week 3 of antibody therapy, the patient received one dose of 50 mg oral dexamethasone. After completion of antibody therapy (i.e., at the beginning of week four following the start of therapy), the patient received one dose of 100 mg oral prednisolone.
Patient 4, diagnosed with HD, received 1 mg/kg anti-CD30 antibody […] by i.v. infusion once per day per week for 3 weeks. On the second day of week 1 after beginning therapy, the patient received 40 mg oral dexamethasone once per day for 4 days, followed by no steroid therapy for 10 days. Thus, a dexamethasone cycle was completed over a 14 day period. For this patient, 8 cycles of dexamethasone therapy were completed over a period of 4 months.

Assay [3] deals with ALCL and various HD-derived cell lines. As to conditions: in vitro and in vivo; Borchmann et al., Blood 2003; cited from earlier work.
In assay [4] the test system is T cell lymphoma, CD30 positive lymphoma. Kind of assay: Combination therapy of anti-CD30 antibody and glucocorticosteroid in a patient with T cell lymphoma. Type of assay: in vivo, human. As to conditions: Patient 3, T cell lymphoma; 40 mg oral dexamethasone daily for 4 days, then 50 mg oral prednisolone daily for 20 days; 15 mg/kg 5F11 i.v. once per week for 3 weeks from second week. The protocol: Patient 3, diagnosed with T cell lymphoma, received 40 mg oral dexamethasone once per day for 4 days. On day 5, dexamethasone treatment ceased and 50 mg oral prednisolone was administered once per day for 20 days. At the beginning of the second week of steroid therapy, antibody therapy was initiated by administering 15 mg/kg anti-CD30 antibody 5F11 by i.v. infusion once per day per week for 3 weeks.

Regarding `C[C@]12CCC(=O)C=C1CC[C@@H]1[C@@H]2C(=O)C[C@@]2(C)[C@H]1CC[C@]2(O)C(=O)CO` [Cortisone], in assay [1], the “Relative potency in mg to hydrocortisone” value is on record as 0.8.

Turning to `C[C@]12C=CC(=O)C=C1CC[C@@H]1[C@@H]2[C@@H](O)C[C@@]2(C)[C@H]1CC[C@]2(O)C(=O)CO` [Prednisolone], the “Relative potency in mg to hydrocortisone” value in assay [1] was 4.

In the case of `C[C@]12CCC(=O)C=C1CC[C@@H]1[C@@H]2[C@@H](O)C[C@@]2(C)[C@H]1CC[C@]2(O)C(=O)CO` [Cortisol], in assay [1], the “Relative potency in mg to hydrocortisone” value is listed as 1.25.

In the case of `C[C@]12CCC(=O)C=C1CC[C@@H]1[C@@H]2[C@@H](O)C[C@@]2(C)[C@H]1CC[C@]2(O)C(=O)CO` [Hydrocortisone], the “Relative potency in mg to hydrocortisone” value in assay [1] is given as 1.

Consider `C[C@]12C=CC(=O)C=C1CC[C@H]1[C@@H]3C[C@@H](O)[C@](O)(C(=O)CO)[C@@]3(C)C[C@H](O)[C@@]12F` [Triamcinolone], for which the “Relative potency in mg to hydrocortisone” value in assay [1] is recorded as 5.

B1: 5F11: fully human anti-CD30 monoclonal antibody; VH SEQ ID NO: 10, VL SEQ ID NO: 12; VH 4-34 and VK L15 (antibody, chains of the INN, looked up, V domains shown)
VH: QVQLQQWGAGLLKPSETLSLTCAVYGGSFSAYYWSWIRQPPGKGLEWIGDINHGGGTNYNPSLKSRVTISVDTSKNQFSLKLNSVTAADTAVYYCASLTAYWGQGSLVTVSS
VL: DIQMTQSPTSLSASVGDRVTITCRASQGISSWLTWYQQKPEKAPKSLIYAASSLQSGVPSRFSGSGSGTDFTLTISSLQPEDFATYYCQQYDSYPITFGQGTRLEIK
notes: fully human anti-CD30 monoclonal antibody; VH 4-34 and VK L15
For B1, the clinical response result is reported as “partial response” in assay [2] (Patient 1, HD, 5 mg/kg 5F11 i.v. once per week for 3 weeks, then 40 mg oral dexamethasone once per day for 2 days, 4 days and 4 days (three regimens)); “partial response, which improved to complete a response” in assay [2] (Patient 2, HD, 15 mg/kg 5F11 i.v. once per week for 3 weeks, one dose 50 mg oral dexamethasone at week 3, one dose 100 mg oral prednisolone at week 4); “partial response” in assay [2] (Patient 4, HD, 1 mg/kg antibody i.v. once per week for 3 weeks, 8 cycles of 40 mg oral dexamethasone daily for 4 days per 14 days over 4 months); “complete response” in assay [4]. Also, the “efficacy against ALCL and various HD-derived cell lines” value in assay [3] is “shown efficacy”.
